Earlier results as cited in EP3155636B1, “A PROBE FOR EXTRACTION OF MOLECULES OF INTEREST FROM A SAMPLE” (JP Scientific Limited, priority 2014, dated 2015).

Conditions: listed with the MS/MS parameters of 21 WADA controlled substances; source and method not stated

In order of rising “Log P” value:
1. CCN(CC)C(=O)c1cccnc1 [Nikethamide]  0.33
2. CC(C)(C)NCC(O)c1ccc(O)c(CO)c1 (stereo not drawn) [Salbutamol]  0.64
3. CC(C)NCC(O)COc1ccc(COCCOC(C)C)cc1 (stereo not drawn) [Bisoprolol]  2.14
4. C=C1C[C@@H]2[C@H](CC[C@]3(C)C(=O)CC[C@@H]23)[C@@]2(C)C=CC(=O)C=C12 [Exemestane]  3.70
5. Cc1cc(SCc2sc(-c3ccc(C(F)(F)F)cc3)nc2C)ccc1OCC(=O)O [GW501516]  6.29
6. CN(C)CCOc1ccc(/C(=C(/CCCl)c2ccccc2)c2ccccc2)cc1 [Toremifene]  6.80
